{"source": "PubChem BioAssay AID1259407", "about": "(Chemical Carcinogenesis Research Information System (CCRIS), 2018)", "test_system": "CCRIS mutagenicity, Ames/micronucleus/aberration tests", "test": "CCRIS mutagenicity studies", "key": {"[1]": {"details": "Test System: AMES SALMONELLA TYPHIMURIUM, Strain/Indicator: TA98, Metabolic Activation: NONE, Method: PREINCUBATION"}, "[2]": {"details": "Test System: AMES SALMONELLA TYPHIMURIUM, Strain/Indicator: TA100, Metabolic Activation: NONE, Method: PREINCUBATION"}, "[3]": {"details": "Test System: AMES SALMONELLA TYPHIMURIUM, Strain/Indicator: TA1535, Metabolic Activation: NONE, Method: PREINCUBATION"}, "[4]": {"details": "Test System: AMES SALMONELLA TYPHIMURIUM, Strain/Indicator: TA1537, Metabolic Activation: NONE, Method: PREINCUBATION"}, "[5]": {"details": "Test System: AMES SALMONELLA TYPHIMURIUM, Strain/Indicator: TA1535, Metabolic Activation: NONE, Method: STANDARD PLATE"}, "[6]": {"details": "Test System: AMES SALMONELLA TYPHIMURIUM, Strain/Indicator: TA100, Metabolic Activation: NONE, Method: STANDARD PLATE"}, "[7]": {"details": "Test System: AMES SALMONELLA TYPHIMURIUM, Strain/Indicator: TA1537, Metabolic Activation: NONE, Method: STANDARD PLATE"}}, "note": "Active and inactive are the calls of the source. The rule behind the calls is not given here.", "data": [{"smiles": "Clc1ccc(C(Cl)(Cl)Cl)c(Cl)c1", "values": [{"measurement": "mutagenic call", "setting": "Test System: AMES SALMONELLA TYPHIMURIUM, Strain/Indicator: TA98, Metabolic Activation: HAMSTER, LIVER, S-9, AROCLOR 1254 (30%), Method: PREINCUBATION", "result": "active; positive"}, {"measurement": "mutagenic call", "setting": "[1]", "result": "inactive; negative"}, {"measurement": "mutagenic call", "setting": "Test System: AMES SALMONELLA TYPHIMURIUM, Strain/Indicator: TA98, Metabolic Activation: RAT, LIVER, S-9, AROCLOR 1254 (30%), Method: PREINCUBATION", "result": "active; positive"}, {"measurement": "mutagenic call", "setting": "Test System: AMES SALMONELLA TYPHIMURIUM, Strain/Indicator: TA100, Metabolic Activation: HAMSTER, LIVER, S-9, AROCLOR 1254 (30%), Method: PREINCUBATION", "result": "active; positive"}, {"measurement": "mutagenic call", "setting": "[2]", "result": "inactive; negative"}, {"measurement": "mutagenic call", "setting": "Test System: AMES SALMONELLA TYPHIMURIUM, Strain/Indicator: TA100, Metabolic Activation: RAT, LIVER, S-9, AROCLOR 1254 (30%), Method: PREINCUBATION", "result": "active; positive"}]}, {"smiles": "CCCCO[C@@H](CC)CO", "values": [{"measurement": "mutagenic call", "setting": "[1]", "result": "inactive; negative"}, {"measurement": "mutagenic call", "setting": "Test System: AMES SALMONELLA TYPHIMURIUM, Strain/Indicator: TA98, Metabolic Activation: RAT LIVER S-9, PHENOBARBITAL AND BETA-NAPHTHOFLAVONE, Method: PREINCUBATION", "result": "inactive; negative"}, {"measurement": "mutagenic call", "setting": "[2]", "result": "inactive; negative"}, {"measurement": "mutagenic call", "setting": "Test System: AMES SALMONELLA TYPHIMURIUM, Strain/Indicator: TA100, Metabolic Activation: RAT LIVER S-9, PHENOBARBITAL AND BETA-NAPHTHOFLAVONE, Method: PREINCUBATION", "result": "inactive; negative"}, {"measurement": "mutagenic call", "setting": "[3]", "result": "inactive; negative"}, {"measurement": "mutagenic call", "setting": "Test System: AMES SALMONELLA TYPHIMURIUM, Strain/Indicator: TA1535, Metabolic Activation: RAT LIVER S-9, PHENOBARBITAL AND BETA-NAPHTHOFLAVONE, Method: PREINCUBATION", "result": "inactive; negative"}, {"measurement": "mutagenic call", "setting": "[4]", "result": "inactive; negative"}, {"measurement": "mutagenic call", "setting": "Test System: AMES SALMONELLA TYPHIMURIUM, Strain/Indicator: TA1537, Metabolic Activation: RAT LIVER S-9, PHENOBARBITAL AND BETA-NAPHTHOFLAVONE, Method: PREINCUBATION", "result": "inactive; negative"}, {"measurement": "mutagenic call", "setting": "Test System: E.COLI, Strain/Indicator: WP2UVRA/PKM101, Metabolic Activation: NONE, Method: PREINCUBATION", "result": "inactive; negative"}, {"measurement": "mutagenic call", "setting": "Test System: E.COLI, Strain/Indicator: WP2UVRA/PKM101, Metabolic Activation: RAT LIVER S-9, PHENOBARBITAL AND BETA-NAPHTHOFLAVONE, Method: PREINCUBATION", "result": "inactive; negative"}]}, {"smiles": "CC(=O)OCN(CCCCCl)N=O", "values": [{"measurement": "mutagenic call", "setting": "Test System: AMES SALMONELLA TYPHIMURIUM, Strain/Indicator: TA92, Metabolic Activation: NONE, Method: STANDARD PLATE", "result": "active; positive"}, {"measurement": "mutagenic call", "setting": "[5]", "result": "active; positive"}]}, {"smiles": "OC1c2cccc3ccc4cccc1c4c23", "values": [{"measurement": "mutagenic call", "setting": "Test System: AMES SALMONELLA TYPHIMURIUM, Strain/Indicator: TA98, Metabolic Activation: HUMAN, LIVER, CYTOSOL, PAPS, Method: PREINCUBATION", "result": "inactive; negative"}]}, {"smiles": "C[C@@H](C(=O)O)N(N=[N+]=[N-])C(=O)OC(C)(C)C", "values": [{"measurement": "mutagenic call", "setting": "[6]", "result": "active; positive"}]}, {"smiles": "COc1cc(NS(C)(=O)=O)ccc1Nc1c2ccc(N=[N+]=[N-])cc2nc2c(C)cccc12", "values": [{"measurement": "mutagenic call", "setting": "[7]", "result": "active; positive"}]}, {"smiles": "Oc1cc(Cl)ccc1Cl", "values": [{"measurement": "mutagenic call", "setting": "Test System: AMES SALMONELLA TYPHIMURIUM, Strain/Indicator: TA98, Metabolic Activation: HAMSTER, LIVER, S-9, AROCLOR 1254, Method: PREINCUBATION", "result": "inactive; negative"}, {"measurement": "mutagenic call", "setting": "[1]", "result": "inactive; negative"}, {"measurement": "mutagenic call", "setting": "Test System: AMES SALMONELLA TYPHIMURIUM, Strain/Indicator: TA98, Metabolic Activation: RAT, LIVER, S-9, AROCLOR 1254, Method: PREINCUBATION", "result": "inactive; negative"}, {"measurement": "mutagenic call", "setting": "Test System: AMES SALMONELLA TYPHIMURIUM, Strain/Indicator: TA100, Metabolic Activation: HAMSTER, LIVER, S-9, AROCLOR 1254, Method: PREINCUBATION", "result": "inactive; negative"}, {"measurement": "mutagenic call", "setting": "[2]", "result": "inactive; negative"}, {"measurement": "mutagenic call", "setting": "Test System: AMES SALMONELLA TYPHIMURIUM, Strain/Indicator: TA100, Metabolic Activation: RAT, LIVER, S-9, AROCLOR 1254, Method: PREINCUBATION", "result": "inactive; negative"}, {"measurement": "mutagenic call", "setting": "Test System: AMES SALMONELLA TYPHIMURIUM, Strain/Indicator: TA1535, Metabolic Activation: HAMSTER, LIVER, S-9, AROCLOR 1254, Method: PREINCUBATION", "result": "inactive; negative"}, {"measurement": "mutagenic call", "setting": "[3]", "result": "inactive; negative"}, {"measurement": "mutagenic call", "setting": "Test System: AMES SALMONELLA TYPHIMURIUM, Strain/Indicator: TA1535, Metabolic Activation: RAT, LIVER, S-9, AROCLOR 1254, Method: PREINCUBATION", "result": "inactive; negative"}, {"measurement": "mutagenic call", "setting": "Test System: AMES SALMONELLA TYPHIMURIUM, Strain/Indicator: TA1537, Metabolic Activation: HAMSTER, LIVER, S-9, AROCLOR 1254, Method: PREINCUBATION", "result": "inactive; negative"}, {"measurement": "mutagenic call", "setting": "[4]", "result": "inactive; negative"}, {"measurement": "mutagenic call", "setting": "Test System: AMES SALMONELLA TYPHIMURIUM, Strain/Indicator: TA1537, Metabolic Activation: RAT, LIVER, S-9, AROCLOR 1254, Method: PREINCUBATION", "result": "inactive; negative"}, {"measurement": "mutagenic call", "setting": "Test System: CHINESE HAMSTER OVARY CELLS, Strain/Indicator: CHO-K1-BH4 (HPRT)/6-THIOGUANINE, Metabolic Activation: NONE, Method: PREINCUBATION", "result": "inactive; negative"}, {"measurement": "mutagenic call", "setting": "Test System: CHINESE HAMSTER OVARY CELLS, Strain/Indicator: CHO-K1-BH4 (HPRT)/6-THIOGUANINE, Metabolic Activation: S-9, Method: PREINCUBATION", "result": "inactive; negative"}]}, {"smiles": "OC1c2ccc3nc4c(ccc5ccccc54)cc3c2C2OC2C1O", "note": "(stereo not given)", "values": [{"measurement": "mutagenic call", "setting": "Test System: AMES SALMONELLA TYPHIMURIUM, Strain/Indicator: TA98, Metabolic Activation: RAT, LIVER, AROCLOR 1254, NADPH GENERATING SYSTEM, Method: STANDARD PLATE", "result": "inactive; negative"}, {"measurement": "mutagenic call", "setting": "Test System: AMES SALMONELLA TYPHIMURIUM, Strain/Indicator: TA100, Metabolic Activation: RAT, LIVER, AROCLOR 1254, NADPH GENERATING SYSTEM, Method: STANDARD PLATE", "result": "inactive; negative"}, {"measurement": "mutagenic call", "setting": "Test System: CHINESE HAMSTER V-79, Strain/Indicator: V-79/8-AZAGUANINE, Method: STANDARD PLATE", "result": "inactive; negative"}]}, {"smiles": "CN(C)c1ccc([C@H]2C[C@@]3(C)[C@@H](CC[C@@]3(O)/C=C\\CO)[C@@H]3CCC4=CC(=O)CCC4=C32)cc1", "values": [{"measurement": "mutagenic call", "setting": "End Point: IN VITRO CHROMOSOMAL ABERRATIONS, Test System: HUMAN PERIPHERAL LYMPHOCYTES, Metabolic Activation: NONE", "result": "inactive; negative"}, {"measurement": "mutagenic call", "setting": "End Point: IN VITRO CHROMOSOMAL ABERRATIONS, Test System: HUMAN PERIPHERAL LYMPHOCYTES, Metabolic Activation: RAT, LIVER, S-9, AROCLOR 1254", "result": "inactive; negative"}, {"measurement": "mutagenic call", "setting": "Test System: AMES SALMONELLA TYPHIMURIUM, Strain/Indicator: TA98, Metabolic Activation: NONE, Method: STANDARD PLATE", "result": "inactive; negative"}, {"measurement": "mutagenic call", "setting": "Test System: AMES SALMONELLA TYPHIMURIUM, Strain/Indicator: TA98, Metabolic Activation: RAT, LIVER, S-9, AROCLOR 1254, Method: STANDARD PLATE", "result": "inactive; negative"}, {"measurement": "mutagenic call", "setting": "[6]", "result": "inactive; negative"}, {"measurement": "mutagenic call", "setting": "Test System: AMES SALMONELLA TYPHIMURIUM, Strain/Indicator: TA100, Metabolic Activation: RAT, LIVER, S-9, AROCLOR 1254, Method: STANDARD PLATE", "result": "inactive; negative"}, {"measurement": "mutagenic call", "setting": "[5]", "result": "inactive; negative"}, {"measurement": "mutagenic call", "setting": "Test System: AMES SALMONELLA TYPHIMURIUM, Strain/Indicator: TA1535, Metabolic Activation: RAT, LIVER, S-9, AROCLOR 1254, Method: STANDARD PLATE", "result": "inactive; negative"}, {"measurement": "mutagenic call", "setting": "[7]", "result": "inactive; negative"}, {"measurement": "mutagenic call", "setting": "Test System: AMES SALMONELLA TYPHIMURIUM, Strain/Indicator: TA1537, Metabolic Activation: RAT, LIVER, S-9, AROCLOR 1254, Method: STANDARD PLATE", "result": "inactive; negative"}, {"measurement": "mutagenic call", "setting": "Test System: AMES SALMONELLA TYPHIMURIUM, Strain/Indicator: TA1538, Metabolic Activation: NONE, Method: STANDARD PLATE", "result": "inactive; negative"}, {"measurement": "mutagenic call", "setting": "Test System: AMES SALMONELLA TYPHIMURIUM, Strain/Indicator: TA1538, Metabolic Activation: RAT, LIVER, S-9, AROCLOR 1254, Method: STANDARD PLATE", "result": "inactive; negative"}]}]}
